From patent publication US9943607B2, “Beta-glucan compounds, compositions, and methods” (Biothera, Inc., priority 2011, dated 2018)

Key:
[1] = system: human B cells in whole blood; assay: β-glucan binding to B cells in whole blood (BfD IV staining, flow cytometry)
Experimental: Blood was collected from a healthy donor with 10 Units/mL Heparin. 100 μL of blood was mixed with IMPRIME PGG concentrations and incubated at 37° C. for 60 minutes. Cells were washed with 2 mL of PBS and supernatant removed by aspiration. Cells were then stained with 20 μL of BfD IV (U.S. Pat. No. 6,294,321) for 30 minutes before washing again with PBS. 10 μL of goat anti-mouse IgM FITC added to stain for BfD IV positive cells, while 10 μL of anti-CD19 APC was added to stain the B cell population for FACS analysis. Cells were incubated for 30 minutes at room temperature before washing with PBS. The red cells in the blood were lysed by the addition of 2 mL of BD Lyse and fixed with 2% paraformadehyde before analysis on an LSR II flow cytometer. Analysis was performed using FlowJo software.

Raji cells = assay: Binding of IMPRIME PGG to B cell tumor line Raji; design: species or system human; conditions: 50 mcg/mL and 200 mcg/mL
CD19+ B cells = assay: Targeted binding of β-glucan and β-glucan-ERBITUX conjugate to CD19+ B cells in whole blood; design: species or system human; conditions: 10 μg/mL, 30 minutes at 37° C.
Experimental: Cells were washed twice with PBS before staining with the β-glucan specific antibody BfD IV (U.S. Pat. No. 6,294,321). Cells were washed again and stained with an antibodies specific for human IgG to detect ERBITUX and CD19 to label B cells. Cells were analyzed on and LSRII flow cytometer and the groups were compared by gating on CD19^+ B cells.

[2] = molecular target: T1, complement receptor 2, (CR2; aka CD21) on B cells (Homo sapiens, UniProt P20023); assay: β-glucan binding and CR2 blocking with anti-CR2 antibody; conditions: IMPRIME PGG at 100 μg/mL; whole blood or PBMC; anti-CR2 clone 1048 at 10 μg/mL
T1 construct: endogenous in cells; host or cells: B cells in whole blood or PBMC
T1 sequence (P20023 21-1033): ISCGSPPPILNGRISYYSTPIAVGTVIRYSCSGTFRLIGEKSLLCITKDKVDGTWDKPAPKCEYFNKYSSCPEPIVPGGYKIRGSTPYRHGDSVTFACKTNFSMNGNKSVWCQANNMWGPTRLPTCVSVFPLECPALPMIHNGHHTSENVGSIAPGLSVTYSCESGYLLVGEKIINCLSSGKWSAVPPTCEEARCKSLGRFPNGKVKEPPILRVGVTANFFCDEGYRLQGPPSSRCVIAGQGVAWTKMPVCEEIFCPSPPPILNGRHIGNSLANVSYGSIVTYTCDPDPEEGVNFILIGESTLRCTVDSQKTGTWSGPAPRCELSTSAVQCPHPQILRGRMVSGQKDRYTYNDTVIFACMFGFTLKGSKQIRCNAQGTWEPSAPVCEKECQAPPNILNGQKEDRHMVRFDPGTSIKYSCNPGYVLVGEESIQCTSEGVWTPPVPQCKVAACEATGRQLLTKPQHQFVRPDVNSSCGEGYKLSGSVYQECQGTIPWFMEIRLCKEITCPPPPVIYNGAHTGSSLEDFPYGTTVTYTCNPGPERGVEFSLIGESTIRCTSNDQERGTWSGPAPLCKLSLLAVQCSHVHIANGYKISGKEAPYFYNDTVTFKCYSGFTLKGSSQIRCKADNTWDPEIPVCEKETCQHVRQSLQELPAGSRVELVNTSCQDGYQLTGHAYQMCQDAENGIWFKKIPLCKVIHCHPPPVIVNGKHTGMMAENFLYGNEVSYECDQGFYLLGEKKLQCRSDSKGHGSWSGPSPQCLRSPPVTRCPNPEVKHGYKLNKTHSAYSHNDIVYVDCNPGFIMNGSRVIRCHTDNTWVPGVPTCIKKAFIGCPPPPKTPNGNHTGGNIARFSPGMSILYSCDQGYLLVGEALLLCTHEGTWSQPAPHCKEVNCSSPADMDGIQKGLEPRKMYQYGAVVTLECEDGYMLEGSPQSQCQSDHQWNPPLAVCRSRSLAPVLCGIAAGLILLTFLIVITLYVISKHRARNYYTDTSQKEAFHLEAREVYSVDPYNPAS
Experimental: Whole blood or PBMC were pre-incubated with specific receptor blocking antibodies or the relevant isotype controls at 4° C. for 30-45 minutes before addition of IMPRIME PGG at 100 μg/mL. Binding to B cells was performed as described in Example 1. Clone 1048, the mouse mAb against CR2, and mouse IgG1 isotype control was used at 10 μg/mL/1×10^6 cells. Results are shown in FIG. 3B (Whole Blood) and FIG. 3C (PBMC).

B cells [3] = assay: Calcium flux in PBMC B cells treated in vitro with soluble β-glucan, then stimulated with anti-IgM; type: cell-based, human; conditions: 100 μg/mL, 37° C., one hour; anti-IgM 2.6 μg/mL
Experimental: FURA RED and FLUO-4 (each from Invitrogen, Life Technologies Corp., Carlsbad, Calif.) calcium stain was added to serum free RPMI medium to a final concentration of 3 μM for each dye, then incubated at 37° C. for 30 minutes. PBMCs mixed 1:1 with media containing 10% FCS and incubated an additional 10 minutes. The cells were washed 2× with media containing 10% FCS. Cells were resuspended in RPMI with 10% human serum.
The resuspended cells were incubated with or without the addition of 100 μg/mL IMPRIME PGG at 37° C. for one hour. The monoclonal antibody CD20 APC (BioLegend, Inc., San Diego, Calif.) was added to each tube for 10 minute incubation before washing 2× with RPMI containing 10% FCS. Cells were resuspended in RPMI with 10% FCS for FACS analysis. Calcium flux was induced by stimulating the B cells with goat anti-human IgM at 2.6 μg/mL.

[4] = system: human B cells in enriched PBMC; assay: β-glucan binding to B cells in enriched PBMC (BfD IV staining, flow cytometry); conditions: various hexose concentrations, 37° C., two hours
Experimental: Enriched PBMC were resuspended at 1×10^6 cells/mL in RPMI 1640 supplemented with 10% serum. The β-glucans (IMPRIME PGG (B) and laminarin (C)) at various hexose concentration were added to the cells and incubated in a 37° C., 5% C02 humidified incubator for two hours. After incubation, cells were washed twice with FACS buffer (HBSS supplemented with 1% FBS and 0.1% sodium azide) to remove any unbound β-glucan, and subsequently treated with Fc block. After the Fc block step, cells were stained with the monoclonal antibody BfD IV (U.S. Pat. No. 6,294,321) for 30 minutes at 4° C. and washed twice with cold FACS buffer. Cells were then incubated with FITC-conjugated F(ab′)2 goat anti-mouse IgM for 30 minutes at 4° C. and washed once with cold FACS buffer before fixing with 1% paraformaldehyde. Events were collected on a LSRII flow cytometer and analysis was performed using FlowJo software. Results are shown in FIG. 2B (IMPRIME PGG) and FIG. 2C (laminarin).

Daudi cells = assay: Binding of IMPRIME PGG to B cell tumor line Daudi; design: species or system human; conditions: 50 mcg/mL and 200 mcg/mL
B cells [5] = assay: Calcium flux in B cells of subjects treated in vivo with particulate oral β-glucan, then stimulated with anti-IgM; design: species or system human; conditions: 100 mg/day to 1000 mg/day, anti-IgM 10, 2 or 0.4 μg/mL
Experimental: Blood was drawn from untreated donors (n=15) or donors (n=12) treated with particulate oral β-glucan (U.S. Pat. No. 7,981,447) at dosages ranging from 100 mg/day to 1000 mg/day. PBMCs were isolated from blood using a ficoll gradient.
The isolated PBMCs were treated with 6 μM FURA RED and 3 μM FLUO-4 (each from Invitrogen, Life Technologies Corp., Carlsbad, Calif.) in PBS for 45 minutes at 37° C. The cells were washed 2× with PBS and stained with anti-CD20 APC (BioLegend, Inc., San Diego, Calif.) for 20 minutes at room temperature. Cells were washed 2× and resuspended in RPMI containing 2.5% FCS for FACS analysis. Calcium flux was induced by stimulating the B cells with goat anti-human IgM at 10 μg/mL, 2 μg/mL, or 0.4 μg/mL.

Substance: BT-1110: bovine serum albumin (BSA) conjugated to IMPRIME PGG
- MFI of BfD IV staining on B cells compared to unconjugated IMPRIME PGG ([1]; 50 μg/mL, whole blood): higher

Substance: β(1,6)-[poly-1,3)-D-glucopyranosyl]-poly-b(1,3)-D-glucopyranose [IMPRIME PGG]
- binding to Raji B cell tumor line (Raji cells): bound to these tumor lines in a concentration-dependent manner
- β-glucan detected on CD19+ B cells with anti-β-glucan antibody BfD IV (CD19+ B cells): positive for β-glucan
- binding to CR2 on B cells (blocking by anti-CR2 antibody) [2]: binds to complement receptor 2
- calcium flux of B cells after goat anti-human IgM stimulation (B cells [3]): larger and more sustained calcium flux
- binding to B cells in enriched PBMC (MFI of BfD IV staining) [4]: bind directly to human B cells
- binding to B cells in whole blood (MFI of BfD IV staining) ([1]; various concentrations, 37° C., 60 minutes): bind directly to human B cells
- binding to Daudi B cell tumor line (Daudi cells): bound to these tumor lines in a concentration-dependent manner

Substance: Laminarin [reference compound]
- binding to B cells in enriched PBMC (MFI of BfD IV staining) [4]: bind directly to human B cells

Substance: β(1,6)-[poly-1,3)-D-glucopyranosyl]-poly-b(1,3)-D-glucopyranose [particulate form of β-glucan]
- calcium flux of B cells after goat anti-human IgM stimulation, treated vs untreated subjects (B cells [5]): decrease calcium flux
